Source: patent US5942494A, “Stimulation of gene expression and synthesis of heat shock protein 72/73 (HSP 70)” (The Trustees of Columbia University in the City of New York, priority 1996, dated 1999)
Square brackets hold non-standard residues; d marks the D form. Peptide text beside a SMILES is read from it. Nle = CCCC[C@H](N)C(=O)O

Tests used:
Hsp70 = assay: Pulse-chase turnover of radiolabeled Hsp70 in HepG2 cells; format: cell-based, human
Protocol: FIGS. 4A-4B: Effects of ALLN on Hsp70 turnover and synthesis rates in HepG2 cells. Confluent culture dishes were preincubated for 4 hours with serum-free MEM containing either 1.5% BSA alone (Control) or BSA plus 40 μg/ml of ALLN (ALLN). (A) The preincubated cells were radiolabeled with 3H-leucine (150 μCi/ml) in serum-free, leucine-free medium with/without ALLN for 20 min., washed 3 times with medium free of isotope and then chased in serum-free medium containing BSA with/without ALLN for up to 20 hours. At the indicated time points, cells were harvested and lysed. Samples were immediately stored in a -80° C. freezer. Immunoprecipitation of Hsp70 was performed as described in FIG. 1. Data at each time point were presented as means of cpm from duplicate dishes. (B) . […]
FIGS. 8A-8C: Effects of ALLN on Hsp70 synthesis and turnover rates in HepG2 cells. […] Immunoprecipitates were analyzed on SDS-PAGE and fluorography (A) and also aliquoted for scintillation counting (B). […]
HepG2 cells were preincubated for 4 hours in serum-free MEM and then radiolabeled with ^3 H-Leucine (150 μCi/ml) in a serum-free, leucine-free medium. […] Cell lysates containing equal amounts of trichloroacetic acid (TCA)-insoluble radioactivity were used for immunoprecipitations by incubating with individual monoclonal antibody (1 μg/ml) for 2.5 hours at 4° C. […]

hsp70 (hsp72) mRNA = assay: Northern blot of hsp70 (hsp72) mRNA in HepG2 cells; format: cell-based, human
Protocol: HepG2 cells were treated with serum-free MEM containing either 1.5% BSA alone (Control, lane1), BSA plus 40 μg/ml of ALLN (ALLN, lane2), ALLN and 10 μg/ml of actinomycin D (A+AD, lane3), or ALLN and 50 μg/ml of cycloheximide (A+CXM, lane4). After 4 hours treatment at 37° C., cells were harvested. (B). HepG2 cells were treated with 40 μg/ml of ALLN in the serum-free MEM for up to 0 hour (lane1), 1 hour (lane2), 2 hours (lane3), and 3 hours (lane4) and then harvested without recovery. Or after treatment for 3 hours in the presence of ALLN as above, the ALLN containing medium were removed, cells were washed and fed fresh medium containing only BSA for recovery of up to 1 hour (lane5), 3 hours (lane6), 5 hours (lane7) or 7 hours (lane8). The total RNA was prepared, and equal amounts of the samples were loaded and run on a 1% formaldehyde-agarose gel, blotted onto a nylon membrane, and subsequently hybridized with specific synthetic oligonucleotide probes for hsp70 mRNA as described under Experimental Details. The position of 28S and 18S rRNA are shown for reference.
Total RNA was prepared using the procedure of Chomczynski and Sacchi (Chomczynski, et al., 1987) and a commercially prepared reagent, TRISOLV™ (Biotecx Laboratories Inc., Tex.) . Equal amounts of tRNA samples (10 μg) were size-fractionated on a 1% agarose-formaldehyde gel according to the methods described (Maniatis, et al., 1982) and transferred to a piece of QIAGEN plus nylon membrane. To determine loading and transfer efficiency, RNA was stained with ethidium bromide before and after transfer. The membrane was baked for 30 min. at 80° C. in vacuo (a vacuum) followed by UV cross-linking. It was then incubated for 4 hours at 65° C. in a prehybridization mixture containing 10% dextran sulfate, 1% SDS, 1M sodium chloride, 50 mM Tris-HCl (pH 7.5) and 100 μg/ml denatured salmon sperm DNA. Hybridization was carried out for 18 hours at 65° C. in the same buffer with a ^32 P-labeled (1×10^6 cpm/ml) 40-mer oligonucleotide probe to the untranslated 5' region of a human hsp70 gene (Oncogene Science). […] The membrane was then washed four times with 2×SSC, 0.1% SDS at room temperature, one time at 65° C. for 30 min., and one time at room temperature again for 5 min., and finally rinsed with 2×SSC at room temperature. This membrane was air dried and exposed to X-ray film at -80° C. for 48 hours.
Total RNA was isolated from HepG2 cells which had been incubated for 4 hours at 37° C. (FIG. 5A) with MEM containing BSA alone (Control, lane1), BSA plus 40 μg/ml of ALLN (ALLN, lane2), BSA plus ALLN and […] of actinomycin D (A+AD, lane3) or BSA plus ALLN and 50 μg/ml of cycloheximide (A+CXM, lane4). A radioprobe containing a unique sequence specific for the 5' untranslated region of hsp72 (inducible form) (Freeman et al., 1993) was used for Northern blot analysis.

Which results are given for `CCCC[C@@H](C=O)NC(=O)[C@H](CC(C)C)NC(=O)[C@H](CC(C)C)NC(C)=O` [ALLN, N-acetyl-leucyl-leucyl-norleucinal] (Ac-Leu-Leu-[Nle]-aldehyde)?
Half life of newly synthesized Hsp70 in the presence of ALLN (Hsp70; ALLN 40 μg/ml, pulse-chase, HepG2): about 6 hours; Increase in the half-life of Hsp70 (Hsp70; ALLN versus no ALLN): 3-4 fold; hsp70 (hsp72) mRNA after recovery (hsp70 (hsp72) mRNA; 3 hours ALLN 40 μg/ml, then 7 hours of recovery in ALLN-free medium): declined to background levels; Time of ALLN treatment to significant elevation of hsp70 (hsp72) mRNA (hsp70 (hsp72) mRNA; ALLN 40 μg/ml): ≤ 60 min; Amount of hsp70 (hsp72) mRNA (hsp70 (hsp72) mRNA; ALLN 40 μg/ml, 4 hours at 37° C.): increased dramatically
